Measured values from article PMC9374377, “Noninvasive interrogation of CD8^+ T cell effector function for monitoring early tumor responses to immunotherapy” (The Journal of Clinical Investigation, 2022).
Blank lines part the entries; values can stand above or below the compound they belong to. Where a SMILES comes first, the peptide text is derived from it. The star is where a group is joined. X1 = O=C(O)CN1CCN(CC(=O)O)CC(Cc2ccc(NC(=S)*)cc2)N(CC(=O)O)CC1

Columns and labels:
[1] = tested on: MC38 tumor–bearing mice; experiment: FTY720 treatment of MC38 tumor–bearing mice under anti–PD-1 plus anti–CTLA-4; type: in vivo, mouse
Text: MC38 or B16-OVA tumor–bearing C57BL/6 mice were euthanized, and tumor tissues were harvested and digested with 10 U/mL collagenase I, 400 U/mL collagenase IV, and 30 U/mL DNase (Yuanye Bio-Technology) to generate single-cell suspensions. The following fluorescently labeled antibodies were then used for staining of different markers: anti-CD45 (clone 30-F11, BioLegend), anti-CD4 (clone RM4-5, eBioscience), anti-CD8 (clone 53-6.7, BioLegend), anti-NK1.1 (clone PK136, BioLegend), anti–granzyme B (clone QA16A02, BioLegend), and anti–IFN-γ (clone XMG1.2, BioLegend). For granzyme B and IFN-γ staining, cells were incubated in culture medium containing a cell activation cocktail (catalog 423303, BioLegend) at 37°C for 5 hours and then washed with permeabilization wash buffer (catalog 421002, BioLegend) before being stained with fluorescently labeled antibodies. Data collection and analysis were performed on a flow cytometer (Becton Dickinson).
The tumor sections were fixed with ice-cold acetone for 10 minutes and washed with PBS. Next, the slices were blocked with 1% BSA for 1 hour and incubated with rabbit anti–mouse granzyme B antibody (catalog 17215S, Cell Signaling Technology) or rabbit anti–mouse NK1.1 antibody (clone EPR22990-31, Abcam) overnight at 4°C. The slices were then visualized by incubation with FITC-conjugated secondary antibody (catalog E031220-01, Earthox) and DAPI (Biotium) under a confocal microscope (Leica).

[2] = tested on: MC38 tumor–bearing mice; settings: mouse, in vivo
Protocol: (§1) Small-animal PET scanning and image analysis were performed using a Super Nova PET/CT scanner ([sequence]). […] At the indicated times (0.5, 1, and 2 hours) after injection, 10-minute static PET scans were acquired. PET images were analyzed, and the region of interest–derived (ROI-derived) %ID/g values were calculated as described previously ([52]).
MC38 tumor-bearing C57BL/6 mice were pretreated with anti-PD-1 antibody
For the small-animal PET imaging studies, ten MC38 tumor-bearing C57BL/6 mice
CTLA-4 (clone 9D9; BioXcell) antibodies on days 0, 3, and 6 after the tumor size
grazytracer. Mice were anesthetized with 2% inhaled isoflurane, and 10-min static PET
scans were acquired at 0.5, 1, and 2 h postinjection using a small-animal Super Nova
PET/CT scanner ([sequence], Shanghai, China). The tumor %ID/g values and tumor-
to-muscle ratios of 68Ga-NOTA-GZP and 68Ga-grazytracer were calculated for

[3] = tested on: 4T1 tumor–bearing mice; settings: mouse, in vivo
Protocol: as §1

[4] = In vivo metabolic stability (serum and urine, radio-HPLC); parameters: species or system mouse; settings: female C57BL/6 normal mice, 5.55 MBq i.v.
Text: μg/day on days 0, 3, and 6).
distribution of the radiotracer in the main organs. Mice were euthanized at 0.5, 1, and
and measured using a γ counter (Packard, Meriden, CT). The results are presented as
In vivo metabolic stability studies
grazytracer or 68Ga-NOTA-GZP.
and analyzed using radio-HPLC.

Compound: CCCCCCCCc1ccc(CCC(N)(CO)CO)cc1 [FTY720]
- effect on the antitumor effect of anti–PD-1 plus anti–CTLA-4 ([1]; 25 μg i.p. on day –1, 10 μg daily day 0 to 12, n = 6–9): partially reversed the antitumor effect
- body weight ([1]; MC38 mice, n = 6–9): without influencing body weight
- granzyme B secretion in tumors (immunofluorescence) ([1]; MC38 tumors on day 6): reduced granzyme B secretion in tumors
- levels of NK, CD4+ T and CD8+ T cells in tumor versus group without FTY720 ([1]; flow cytometry, day 6, n = 5/group): significantly lower

- change of tumor uptake from days 0 to 6, pseudoprogression MC38 model [2]: significantly increased
- change of tumor uptake from days 0 to 6, true-progression 4T1 model [3]: significantly increased
Compound: OC[C@H]1OC(O)[C@H](F)[C@@H](O)[C@@H]1O (some centres unmarked) [^18F-FDG, ^18F-fluorodeoxyglucose]

- in vivo metabolic stability in blood ([4]; serum at 0.5 hours after injection): favorable stability in the blood
- in vivo metabolic stability in urine ([4]; urine at 0.5 hours after injection): some decomposition in urine
Compound: CC[C@H](C)[C@H](NC(=O)CNC(=O)CNC(=O)CNC(=S)Nc1ccc(CC2CN(CC(=O)O)CCN(CC(=O)O)CCN2CC(=O)O)cc1)C(=O)N[C@@H](CCC(=O)O)C(=O)N[C@@H](Cc1ccccc1)C(=O)N[C@H](C=O)CC(=O)O (some centres unmarked) [^68Ga-NOTA-GZP, ^68Ga-1,4,7–triazacyclononane-1,4,7-triacetic acid–GZP, metal not drawn] (X1-GGGIEFD-aldehyde)
